# Source: publication PMC4230446 (Biochemistry, 2009)
# Biological target: T1, pyruvate formate-lyase activating enzyme (PFL-AE) (Escherichia coli, UniProt P0A9N4)
# T1 sequence (P0A9N4 2-246): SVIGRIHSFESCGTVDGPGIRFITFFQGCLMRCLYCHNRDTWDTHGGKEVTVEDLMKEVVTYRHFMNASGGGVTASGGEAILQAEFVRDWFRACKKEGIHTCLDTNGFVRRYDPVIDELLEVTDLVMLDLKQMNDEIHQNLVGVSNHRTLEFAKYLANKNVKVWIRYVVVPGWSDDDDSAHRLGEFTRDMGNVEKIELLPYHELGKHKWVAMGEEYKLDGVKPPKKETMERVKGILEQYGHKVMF
# Experiment: […] Mössbauer spectroscopy
# Assay type: binding
# Details: 0.64 mM enzyme, [4Fe-4S]2+ state; 4.2 K, 50 mT; unique Fe site of cluster
row,SMILES,fraction of LOC cluster at 6.4 mM
1,Nc1ncnc2c1ncn2[C@@H]1O[C@H](COP(=O)(O)OP(=O)(O)O)[C@@H](O)[C@H]1O [ADP],50 % of total Fe
2,Nc1ncnc2c1ncn2[C@@H]1O[C@H](COP(=O)(O)O)[C@@H](O)[C@H]1O [AMP],69 % of total Fe
